This passage reports IC50 results from patent US12473296B2, “Perk inhibiting compounds” (HiberCell, Inc., priority 2019, dated 2025).

Assay [1] deals with PERK (Homo sapiens (Human), UniProt Q9NZJ5). The assay can be described thus: PERK cellular assay (TR-FRET, HEK293-EGFP-eIF2α cells, tunicamycin-induced ER stress). The assay is classed as cell-based. To be noted: tunicamycin 2 hours, read-out: Cellular IC50 (μM) (EIF2a). Here is the method: Stable cell lines were created in HEK293 cells using lentiviral particles harboring an expression vector for GFP-eIF2α. Cells were selected using puromycin and enriched using fluorescence activated cell sorting against GFP. HEK293-EGFP-eIF2α cells were plated at 5000 cells/well in 384-well assay plates and incubated overnight at 37° C., 5% CO2. Inhibitor compounds were added to the wells by Echo acoustic dispensing and incubated for 30 minutes at 37° C., 5% CO2 prior to induction of ER stress by addition of tunicamycin to […] for 2 hours. Cells were lysed and TR-FRET was measured in an EnVision plate reader (PerkinElmer). FRET ratio data was normalized to signal from lysates treated with DMSO vehicle control and plotted as percent inhibition against 10-point; 3-fold dilution series of inhibitors. IC50 values were calculated using 4-parameter logistical fitting in XLFit.

The target of assay [2] is EIF2AK3 (PERK) catalytic domain (amino acids 536-1116) (Homo sapiens (Human), UniProt Q9NZJ5). The assay can be described thus: PERK in vitro activity assay (isolated), TR-FRET kinase assay. As to conditions: isolated PERK enzyme, 1.5 μM ATP, GFP-eIF2a substrate; read-out: Biochemical IC50. From the text: PERK In Vitro Activity Assay (Isolated):
In vitro Inhibition of PERK Enzyme Activity (isolated) Recombinant human EIF2AK2 (PKR) catalytic domain (amino acids 252-551), EIF2AK3 (PERK) catalytic domain (amino acids 536-1116), GFP-eIF2a substrate, and Terbium-labelled phospho-eIF2a antibody is obtained (Invitrogen, Carlsbad, CA).
Express and purify HIS-SUMO-GCN2 catalytic domain (amino acids 584-1019) from E. coli. Perform TR-FRET kinase assays in the absence or presence of inhibitors in a reaction buffer consisting of 50 mM HEPES, pH 7.5, 10 mM MgCb, 1.0 mM EGTA, and 0.01% Brij-35, and 100-200 nM GFP-eIF2a substrate. […] Add test compound, initiate the reaction by addition of enzyme, and incubate at room temperature for 45 minutes. Stop the reaction by addition of EDTA to a final concentration of 10 mM, add Terbium-labelled phospho-eIF2a antibody at a final concentration of 2 nM, and incubate for 90 minutes. Monitor the resulting fluorescence in an EnVison® Multilabel reader (PerkinElmer, Waltham, MA). Determine TR-FRET ratios and the resulting IC50 values using a 4-parameter nonlinear logistic equation as shown: Y=(A+((B−A)/(1+((C/x)[…])))) where, Y=% specific inhibition, A=Bottom of the curve, B=Top of the curve, C=absolute IC50 (concentration causing 50% inhibition), and D=hill slope.
Background: Time-resolved FRET reads energy transfer from a long-lived donor to a nearby acceptor.

Usually IC50 stands for the concentration at which inhibition is half-maximal.

PERK, sequence (Q9NZJ5 30-1116): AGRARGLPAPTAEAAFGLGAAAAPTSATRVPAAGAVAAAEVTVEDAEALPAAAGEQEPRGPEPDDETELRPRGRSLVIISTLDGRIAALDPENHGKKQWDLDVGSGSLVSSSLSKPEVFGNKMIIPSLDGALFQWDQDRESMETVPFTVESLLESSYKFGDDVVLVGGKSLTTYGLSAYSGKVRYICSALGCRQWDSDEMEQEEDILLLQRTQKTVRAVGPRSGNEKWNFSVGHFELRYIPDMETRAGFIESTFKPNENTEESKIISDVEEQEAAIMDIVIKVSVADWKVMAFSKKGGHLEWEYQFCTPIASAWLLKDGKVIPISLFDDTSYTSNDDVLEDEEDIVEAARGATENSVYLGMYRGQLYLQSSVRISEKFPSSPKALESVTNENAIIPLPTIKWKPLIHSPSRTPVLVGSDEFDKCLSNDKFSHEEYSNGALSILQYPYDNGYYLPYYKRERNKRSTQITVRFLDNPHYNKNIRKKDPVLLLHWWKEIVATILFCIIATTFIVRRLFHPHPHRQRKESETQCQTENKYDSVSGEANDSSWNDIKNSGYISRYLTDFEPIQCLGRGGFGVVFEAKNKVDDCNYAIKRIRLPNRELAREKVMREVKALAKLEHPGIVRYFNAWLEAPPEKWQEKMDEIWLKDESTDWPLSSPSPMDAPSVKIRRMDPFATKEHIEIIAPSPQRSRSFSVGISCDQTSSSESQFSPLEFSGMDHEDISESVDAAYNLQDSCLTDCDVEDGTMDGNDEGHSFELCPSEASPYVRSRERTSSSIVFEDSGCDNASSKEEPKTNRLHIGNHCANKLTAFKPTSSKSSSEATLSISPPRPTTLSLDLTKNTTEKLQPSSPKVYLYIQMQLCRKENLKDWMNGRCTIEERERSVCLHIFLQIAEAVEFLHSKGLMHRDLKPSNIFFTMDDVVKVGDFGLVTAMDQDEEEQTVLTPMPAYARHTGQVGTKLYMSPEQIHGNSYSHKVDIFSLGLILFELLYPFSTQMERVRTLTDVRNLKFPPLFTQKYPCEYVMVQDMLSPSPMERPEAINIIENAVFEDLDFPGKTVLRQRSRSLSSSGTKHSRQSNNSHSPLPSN
EIF2AK3 (PERK) catalytic domain (amino acids 536-1116), sequence (Q9NZJ5 536-1116): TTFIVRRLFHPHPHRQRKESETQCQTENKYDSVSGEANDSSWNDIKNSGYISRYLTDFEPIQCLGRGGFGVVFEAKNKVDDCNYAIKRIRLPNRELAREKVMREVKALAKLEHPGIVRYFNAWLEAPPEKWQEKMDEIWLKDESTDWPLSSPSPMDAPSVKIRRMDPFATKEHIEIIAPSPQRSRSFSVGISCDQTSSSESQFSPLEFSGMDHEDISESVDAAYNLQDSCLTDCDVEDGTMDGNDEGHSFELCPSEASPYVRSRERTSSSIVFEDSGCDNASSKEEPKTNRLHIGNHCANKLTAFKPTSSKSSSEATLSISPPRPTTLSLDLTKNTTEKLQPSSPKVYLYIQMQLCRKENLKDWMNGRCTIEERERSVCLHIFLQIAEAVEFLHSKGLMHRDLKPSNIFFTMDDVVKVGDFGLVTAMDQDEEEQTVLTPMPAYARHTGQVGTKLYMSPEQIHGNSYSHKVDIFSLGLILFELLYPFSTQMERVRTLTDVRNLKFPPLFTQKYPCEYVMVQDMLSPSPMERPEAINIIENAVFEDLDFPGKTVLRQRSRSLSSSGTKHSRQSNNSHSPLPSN

With `Cc1cc(NC(=O)C(O)c2ccccc2)ccc1-c1cnc(N)c(C(=O)NC(C)C)c1` (single isomer, unassigned) [Example 1, 2-amino-5-(4-(2-hydroxy-2-phenylacetamido)-2-methylphenyl)-N-isopropylnicotinamide], the IC50 fell in the range of 0.251 to 0.5 µM in assay [1] and 1 to 25 nM in assay [2].
As for `Cc1cc(NC(=O)C(O)c2ccccc2)ccc1-c1cnc(N)c(C(=O)NC(C)C)c1` (single isomer, unassigned) [Example 2, 2-amino-5-(4-(2-hydroxy-2-phenylacetamido)-2-methylphenyl)-N-isopropylnicotinamide], the IC50 in assay [1] was in the range of 0.101 to 0.25 µM; in assay [2], 1 to 25 nM.
For `CNC(=O)c1cc(-c2ccc(NC(=O)C(O)c3cc(F)cc(F)c3)cc2C)cnc1N` (single isomer, unassigned) [Example 10, 2-amino-5-(4-(2-(3,5-difluorophenyl)-2-hydroxyacetamido)-2-methylphenyl)-N-methylnicotinamide] the same measures were 0.051 to 0.1 µM and 1 to 25 nM.
For `CNC(=O)c1cc(-c2ccc(NC(=O)C(O)c3cc(F)cc(F)c3)cc2C)cnc1N` (single isomer, unassigned) [Example 11, 2-amino-5-(4-(2-(3,5-difluorophenyl)-2-hydroxyacetamido)-2-methylphenyl)-N-methylnicotinamide] the same measures were 1 to 2 µM and 501 to 1000 nM.
On to `CCNC(=O)c1cc(-c2ccc(NC(=O)C(O)c3cc(F)cc(F)c3)cc2C)cnc1N` (single isomer, unassigned) [Example 12, 2-amino-5-(4-(2-(3,5-difluorophenyl)-2-hydroxyacetamido)-2-methylphenyl)-N-ethylnicotinamide], for which the IC50 in assay [1] lay in the range of 0.026 to 0.05 µM; in assay [2] it was 1 to 25 nM.
`CCNC(=O)c1cc(-c2ccc(NC(=O)C(O)c3cc(F)cc(F)c3)cc2C)cnc1N` (single isomer, unassigned) [Example 13, 2-amino-5-(4-(2-(3,5-difluorophenyl)-2-hydroxyacetamido)-2-methylphenyl)-N-ethylnicotinamide]: the IC50 in assay [1] was in the range of 0.501 to 1 µM; in assay [2], 1 to 25 nM.
For `Cc1cc(NC(=O)C(O)c2cc(F)cc(F)c2)ccc1-c1cnc(N)c(C(=O)NC(C)(C)C)c1` (single isomer, unassigned) [Example 16, 2-amino-N-(tert-butyl)-5-(4-(2-(3,5-difluorophenyl)-2-hydroxyacetamido)-2-methylphenyl) nicotinamide] the same measures were 0.101 to 0.25 µM and 26 to 50 nM.
For `Cc1cc(NC(=O)C(O)c2cc(F)cc(F)c2)ccc1-c1cnc(N)c(C(=O)NC(C)(C)C)c1` (single isomer, unassigned) [Example 17, 2-amino-N-(tert-butyl)-5-(4-(2-(3,5-difluorophenyl)-2-hydroxyacetamido)-2-methylphenyl) nicotinamide] the same measures were 0.501 to 1 µM and 251 to 500 nM.
On to `Cc1cc(NC(=O)C(O)c2cc(F)cc(F)c2)ccc1-c1cnc(N)c(C(=O)NCC(F)(F)F)c1` (single isomer, unassigned) [Example 18, 2-amino-5-(4-(2-(3,5-difluorophenyl)-2-hydroxyacetamido)-2-methylphenyl)-N-(2,2,2-trifluoroethyl) nicotinamide], for which the IC50 in assay [1] fell in the range of 0.026 to 0.05 µM; in assay [2], 1 to 25 nM.
For `Cc1cc(NC(=O)C(O)c2cc(F)cc(F)c2)ccc1-c1cnc(N)c(C(=O)NCC(F)(F)F)c1` (single isomer, unassigned) [Example 19, 2-amino-5-(4-(2-(3,5-difluorophenyl)-2-hydroxyacetamido)-2-methylphenyl)-N-(2,2,2-trifluoroethyl) nicotinamide] the same measures were 0.101 to 0.25 µM and 101 to 250 nM.
For `CC(C)NC(=O)c1cc(-c2ccc(NC(=O)C(O)c3cc(F)cc(F)c3)cc2Cl)cnc1N` (single isomer, unassigned) [Example 34] the same measures were 0.001 to 0.025 µM and 1 to 25 nM.
For `CC(C)NC(=O)c1cc(-c2ccc(NC(=O)C(O)c3cc(F)cc(F)c3)cc2Cl)cnc1N` (single isomer, unassigned) [Example 35] the same measures were 0.101 to 0.25 µM and 51 to 100 nM.
In the case of `CCc1cc(NC(=O)C(O)c2cc(F)cc(F)c2)ccc1-c1cnc(N)c(C(=O)NC(C)C)c1` (single isomer, unassigned) [Example 38, 2-amino-5-(4-(2-(3,5-difluorophenyl)-2-hydroxyacetamido)-2-ethylphenyl)-N-isopropylnicotinamide], the IC50 in assay [1] lay within 0.001 to 0.025 µM; in assay [2] it was 1 to 25 nM.
For `CCc1cc(NC(=O)C(O)c2cc(F)cc(F)c2)ccc1-c1cnc(N)c(C(=O)NC(C)C)c1` (single isomer, unassigned) [Example 39, 2-amino-5-(4-(2-(3,5-difluorophenyl)-2-hydroxyacetamido)-2-ethylpehnyl)-N-isopropylnicotinamide] the same measures were 0.101 to 0.25 µM and 101 to 250 nM.
For `Cc1cc(NC(=O)C(O)c2cc(F)cc(F)c2)ccc1-c1cnc(N)c(C(=O)OC(C)C)c1` (single isomer, unassigned) [Example 42, isopropyl 2-amino-5-(4-(2-(3,5-difluorophenyl)-2-hydroxyacetamido)-2-methylphenyl) nicotinate] the same measures were 0.026 to 0.05 µM and 1 to 25 nM.
For `Cc1cc(NC(=O)C(O)c2cc(F)cc(F)c2)ccc1-c1cnc(N)c(C(=O)OC(C)C)c1` (single isomer, unassigned) [Example 43, isopropyl 2-amino-5-(4-(2-(3,5-difluorophenyl)-2-hydroxyacetamido)-2-methylphenyl) nicotinate], in that order: 0.251 to 0.5 µM and 51 to 100 nM.
Consider `CCc1cccc(C(O)C(=O)Nc2ccc(-c3cnc(N)c(C(=O)NC(C)C)c3)c(C)c2)c1` (single isomer, unassigned) [Example 72, 2-amino-5-(4-(2-(3-ethylphenyl)-2-hydroxyacetamido)-2-methylphenyl)-N-isopropylnicotinamide], for which the figures for the IC50 in assay [1] and in assay [2] were 0.001 to 0.025 µM and 1 to 25 nM, respectively.
For `CCc1cccc(C(O)C(=O)Nc2ccc(-c3cnc(N)c(C(=O)NC(C)C)c3)c(C)c2)c1` (single isomer, unassigned) [Example 73, 2-amino-5-(4-(2-(3-ethylphenyl)-2-hydroxyacetamido)-2-methylphenyl)-N-isopropylnicotinamide] the same measures were 0.251 to 0.5 µM and 101 to 250 nM.
Turning to `Cc1ccccc1CC(=O)Nc1ccc(-c2cnc(N)c(C(=O)NC(C)C)c2)c(C)c1` [Example 195, 2-amino-N-isopropyl-5-(2-methyl-4-(2-(o-tolyl)acetamido)phenyl)nicotinamide], the half-maximal inhibitory concentration (IC50) in assay [1] was in the range of 0.251 to 0.5 µM.
Still for that read-out and setting: then `Cc1cccc(CC(=O)Nc2ccc(-c3cnc(N)c(C(=O)NC(C)C)c3)c(C)c2)c1` [Example 196, 2-amino-N-isopropyl-5-(2-methyl-4-(2-(m-tolyl)acetamido)phenyl)nicotinamide], with 0.251 to 0.5 µM.
In the case of `CCc1ccccc1CC(=O)Nc1ccc(-c2cnc(N)c(C(=O)NC(C)C)c2)c(C)c1` [Example 204, 2-amino-5-(4-(2-(2-ethylphenyl)acetamido)-2-methylphenyl)-N-isopropylnicotinamide], the IC50 in assay [2] was 101 to 250 nM.
